The source of these data is patent US8158628B2, “Sulfonylated 1,2,3,4-tetrahydropyrrolo[1,2-a]pyrazine compounds and their use as pharmaceuticals” (Gruenenthal GmbH, priority 2009, dated 2012).

Broadly, the inhibition is the relative decrease from the control value, in per cent.

Each structure is given as a SMILES string.

The target of this assay is T1, B1R of the rat (Rattus norvegicus, UniProt P97583).
T1 construct: expressed in transfected cells; host or cells: CHO K1 cells (Chinese hamster ovary), stably transfected
T1 sequence (P97583 1-337): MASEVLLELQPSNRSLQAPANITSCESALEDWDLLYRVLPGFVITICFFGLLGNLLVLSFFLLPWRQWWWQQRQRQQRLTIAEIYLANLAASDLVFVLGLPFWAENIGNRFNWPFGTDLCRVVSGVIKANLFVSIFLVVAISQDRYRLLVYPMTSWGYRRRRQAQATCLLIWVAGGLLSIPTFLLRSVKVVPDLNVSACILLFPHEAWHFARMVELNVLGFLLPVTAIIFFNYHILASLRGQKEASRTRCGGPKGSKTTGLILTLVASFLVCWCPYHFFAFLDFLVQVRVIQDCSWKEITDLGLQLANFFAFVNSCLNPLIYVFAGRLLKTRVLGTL
Description: FLIPR Ca2+ functional assay, B1R antagonism, rat B1R in CHO K1 cells. The class given is cell-based. To be noted: test substance 10 μM; rB1R CHO K1 cells; agonist Des-Arg9 bradykinin at EC80; % of maximum achievable inhibition. On the procedure: The agonistic or antagonistic action of substances on the bradykinin 1 receptor (B1R) of the human and rat species can be quantified with ectopically expressing cell lines (CHO K1 cells) and with the aid of a Ca^2+-sensitive dye (Fluo-4) using a fluorescent imaging plate reader (FLIPR). The value in % activation is based on the Ca^2+ signal after addition of Lys-Des-Arg^9 bradykinin (0.5 nM) or Des-Arg^9 bradykinin (100 nM). Antagonists lead to a suppression of the Ca^2+ influx following administration of the agonist. The % inhibition in comparison with the maximum achievable inhibition is indicated.
1. Functional Investigation on the Bradykinin 1 Receptor (B1R) The agonistic or antagonistic action of substances can be determined on the bradykinin 1 receptor (B1R) of the human and rat species with the following assay. According to this assay, the Ca^2+ inflow through the channel is quantified with the aid of a Ca^2+-sensitive dye (Fluo-4 type, Molecular Probes Europe BV, Leiden, Netherlands) in a fluorescent imaging plate reader (FLIPR, Molecular Devices, Sunnyvale, USA). 2. Method: Chinese hamster ovary cells (CHO K1 cells) which are stably transfected with the human B1R gene (hB1R cells) or the B1R gene of the rat (rB1R cells) are used. For functional investigations these cells are plated-out onto black 96-well plates with a clear base (BD Biosciences, Heidelberg, Germany or Greiner, Frickenhausen, Germany) in a density of 20,000-35,000 cells/well. Overnight the cells are incubated at 37° C. and 5% CO2 in culture medium (hB1R cells: Ham's Nutrient Mixture F12, Gibco Invitrogen GmbH, Karlsruhe, Germany or DMEM, Sigma-Aldrich, Taufkirchen, Germany; rB1R cells: D-MEM/F12, Gibco Invitrogen, Karlsruhe, Germany) with 10 vol. % FBS (foetal bovine serum, Gibco Invitrogen GmbH, Karlsruhe, Germany or PAN Biotech GmbH, Aidenbach, Germany).
On the following day the cells are loaded with 2.13 μM Fluo-4 (Molecular Probes Europe BV, Leiden, Netherlands) in HBSS buffer (Hank's buffered saline solution, Gibco Invitrogen GmbH, Karlsruhe, Germany) with 2.5 mM probenecid (Sigma-Aldrich, Taufkirchen, Germany) and 10 mM HEPES (Sigma-Aldrich, Taufkirchen, Germany) for 60 min at 37° C. The plates are subsequently washed twice with HBSS buffer, and HBSS buffer which additionally contains 0.1% BSA (bovine serum albumin; Sigma-Aldrich, Taufkirchen, Germany), 5.6 mM glucose and 0.05% gelatine (Merck KGaA, Darmstadt, Germany) is added. After a further incubation of 20 minutes at RT, the plates are inserted into the FLIPR for Ca^2+ measurement. Alternatively they are washed with buffer A (15 mM HEPES, 80 mM NaCl, 5 mM KCl, 1.2 mM CaCl2, 0.7 mM MgSO4, 2 g/l glucose, 2.5 mM probenecid) and loaded with buffer A with added 2.5 μM Fluo-4 and 0.025% Pluronic F127 (Sigma-Aldrich, Taufkirchen, Germany). The cells are then washed twice with buffer A and incubated for 30 minutes with buffer A, which additionally contains 0.05% BSA and 0.05% gelatine, at RT and then used for Ca^2+ measurement in the FLIPR. The Ca^2+-dependent fluorescence is measured here before and after addition of substances (λex=488 nm, λem=540 nm). The quantification is performed by measuring the highest fluorescence intensity (FC, fluorescence counts) over time.
The FLIPR protocol comprises two additions of substance. Test substances (10 μM) are first pipetted onto the cells and the Ca^2+ inflow is compared with the control (hB1R: Lys-Des-Arg^9 bradykinin >=50 nM; rB1R: Des-Arg^9 bradykinin 10 μM). The value in % activation based on the Ca^2+ signal after addition of Lys-Des-Arg^9 bradykinin (>=50 nM) or Des-Arg^9 bradykinin (10 μM) is obtained therefrom. After incubation for 10-20 minutes, Lys-Des-Arg^9 bradykinin (hB1R) or Des-Arg^9 bradykinin (rB1R) is applied in the EC80 concentration and the inflow of Ca^2+ is likewise determined.
Antagonists lead to a suppression of the Ca^2+ inflow. The % inhibition in comparison with the maximum achievable inhibition is calculated. […]
For the compound `Cc1cccc(Cl)c1S(=O)(=O)N1CCn2cccc2C1CC(=O)N1CCN(Cc2ccc3c(c2)OCO3)CC1` (stereo not drawn) [Example 252, 1-[4-(1,3-Benzodioxol-5-yl-methyl)-piperazin-1-yl]-2-[2-[(2-chloro-6-methyl-phenyl)sulfonyl]-1,2,3,4-tetrahydro-pyrrolo[1,2-a]pyrazin-1-yl]-ethanone], the inhibition at 10 µM was -10.5%.

`COc1cc(C)c(S(=O)(=O)N2CCn3cccc3C2CC(=O)NCCCN2C(C)CCCC2C)c(C)c1` (stereo not drawn) [Example 143, N-[3-(2,6-Dimethyl-piperidin-1-yl)-propyl]-2-[2-[(4-methoxy-2,6-dimethyl-phenyl)sulfonyl]-1,2,3,4-tetrahydro-pyrrolo[1,2-a]pyrazin-1-yl]-acetamide]: the inhibition at 10 µM amounted to 37.4%.

`CN1CCN(C(=O)CC2c3cccn3CCN2S(=O)(=O)c2ccccc2)C(c2ccccc2)C1` (stereo not drawn) [Example 267, 2-[2-(Benzenesulfonyl)-1,2,3,4-tetrahydro-pyrrolo[1,2-a]pyrazin-1-yl]-1-(4-methyl-2-phenyl-piperazin-1-yl)-ethanone]: the inhibition at 10 µM is -4.75%.

For the compound `COc1cc(C)c(S(=O)(=O)N2CCn3cccc3C2CC(=O)N2CCN(c3ccccc3F)CC2)c(C)c1` (stereo not drawn) [Example 144, 1-[4-(2-Fluorophenyl)-piperazin-1-yl]-2-[2-[(4-methoxy-2,6-dimethyl-phenyl)sulfonyl]-1,2,3,4-tetrahydro-pyrrolo[1,2-a]pyrazin-1-yl]-ethanone], the inhibition at 10 µM is 70.3%.

`CCN1CCN(C(=O)CC2c3cccn3CCN2S(=O)(=O)c2cccc(C(F)(F)F)c2)CC1` (stereo not drawn) [Example 187, 1-(4-Ethyl-piperazin-1-yl)-2-[2-[[3-(trifluoromethyl)phenyl]sulfonyl]-1,2,3,4-tetrahydro-pyrrolo[1,2-a]pyrazin-1-yl]-ethanone]: the inhibition at 10 µM was determined as 18.3%.

Regarding `CN1CCN(C2CCN(C(=O)CC3c4cccn4CCN3S(=O)(=O)c3ccccc3)CC2)CC1` (stereo not drawn) [Example 177, 2-[2-(Benzenesulfonyl)-1,2,3,4-tetrahydro-pyrrolo[1,2-a]pyrazin-1-yl]-1-[4-(4-methyl-piperazin-1-yl)-piperidin-1-yl]-ethanone], the inhibition at 10 µM is -1.9%.

`Cc1cccc(Cl)c1S(=O)(=O)N1CCn2cccc2C1CC(=O)NCCCN1C(C)CCCC1C` (stereo not drawn) [Example 155, 2-[2-[(2-Chloro-6-methyl-phenyl)sulfonyl]-1,2,3,4-tetrahydro-pyrrolo[1,2-a]pyrazin-1-yl]-N-[3-(2,6-dimethyl-piperidin-1-yl)-propyl]-acetamide]: the inhibition at 10 µM worked out at 61.5%.

As for `COc1cc(C)c(S(=O)(=O)N2CCn3cccc3C2CC(=O)N(C)C(CN2CCOCC2)c2ccccc2)c(C)c1` (stereo not drawn) [Example 256, 2-[2-[(4-Methoxy-2,6-dimethyl-phenyl)sulfonyl]-1,2,3,4-tetrahydro-pyrrolo[1,2-a]pyrazin-1-yl]-N-methyl-N-(2-morpholin-4-yl-1-phenyl-ethyl)-acetamide], the inhibition at 10 µM amounted to 5.54%.

As for `COc1cc(C)c(S(=O)(=O)N2CCn3cccc3C2CC(=O)N2CCN(c3ccc(Cl)c(Cl)c3)CC2)c(C)c1` (stereo not drawn) [Example 238, 1-[4-(3,4-Dichlorophenyl)-piperazin-1-yl]-2-[2-[(4-methoxy-2,6-dimethyl-phenyl)sulfonyl]-1,2,3,4-tetrahydro-pyrrolo[1,2-a]pyrazin-1-yl]-ethanone], the inhibition at 10 µM is 17.6%.

Turning to `COc1cc(C)c(S(=O)(=O)N2CCn3cccc3C2CC(=O)N2CCCN(c3ncccc3C#N)CC2)c(C)c1` (stereo not drawn) [Example 150, 2-[4-[2-[2-[(4-Methoxy-2,6-dimethyl-phenyl)sulfonyl]-1,2,3,4-tetrahydro-pyrrolo[1,2-a]pyrazin-1-yl]-acetyl]-[1,4]diazepan-1-yl]-pyridine-3-carbonitrile], the inhibition at 10 µM came to 50.3%.

`COc1cc(C)c(S(=O)(=O)N2CCn3cccc3C2CC(=O)N2CCC(Cc3ccccc3)CC2)c(C)c1` (stereo not drawn) [Example 257, 1-(4-Benzyl-piperidin-1-yl)-2-[2-[(4-methoxy-2,6-dimethyl-phenyl)sulfonyl]-1,2,3,4-tetrahydro-pyrrolo[1,2-a]pyrazin-1-yl]-ethanone]: the inhibition at 10 µM was found to be 75.5%.

Turning to `COc1cc(C)c(S(=O)(=O)N2CCn3cccc3C2CC(=O)NCC2CCCN(Cc3ccccc3)C2)c(C)c1` (stereo not drawn) [Example 248, N-[(1-Benzyl-piperidin-3-yl)-methyl]-2-[2-[(4-methoxy-2,6-dimethyl-phenyl)sulfonyl]-1,2,3,4-tetrahydro-pyrrolo[1,2-a]pyrazin-1-yl]-acetamide], the inhibition at 10 µM came out at 84%.

Consider `Cc1cc(S(=O)(=O)N2CCn3cccc3C2CC(=O)N(C)C(CN2CCN(C)CC2)c2ccccc2)c(C)cc1Cl` (stereo not drawn) [Example 230, 2-[2-[(4-Chloro-2,5-dimethyl-phenyl)sulfonyl]-1,2,3,4-tetrahydro-pyrrolo[1,2-a]pyrazin-1-yl]-N-methyl-N-[2-(4-methyl-piperazin-1-yl)-1-phenyl-ethyl]-acetamide], for which the inhibition at 10 µM worked out at 5.28%.

With `COc1cc(C)c(S(=O)(=O)N2CCn3cccc3C2CC(=O)NCC2CCN(Cc3ccccc3)C2)c(C)c1` (stereo not drawn) [Example 151, N-[(1-Benzyl-pyrrolidin-3-yl)-methyl]-2-[2-[(4-methoxy-2,6-dimethyl-phenyl)sulfonyl]-1,2,3,4-tetrahydro-pyrrolo[1,2-a]pyrazin-1-yl]-acetamide], the inhibition at 10 µM worked out at 104%.

Consider `N#Cc1cccnc1N1CCCN(C(=O)CC2c3cccn3CCN2S(=O)(=O)c2ccccc2)CC1` (stereo not drawn) [Example 181, 2-[4-[2-[2-(Benzenesulfonyl)-1,2,3,4-tetrahydro-pyrrolo[1,2-a]pyrazin-1-yl]-acetyl]-[1,4]diazepan-1-yl]-pyridine-3-carbonitrile], for which the inhibition at 10 µM was 33.9%.

Take `O=C(CC1c2cccn2CCN1S(=O)(=O)c1ccc(C(F)(F)F)cc1Cl)NCC1CCCN(Cc2ccccc2)C1` (stereo not drawn) [Example 254, N-[(1-Benzyl-piperidin-3-yl)-methyl]-2-[2-[[2-chloro-4-(trifluoromethyl)-phenyl]sulfonyl]-1,2,3,4-tetrahydro-pyrrolo[1,2-a]pyrazin-1-yl]-acetamide]: the inhibition at 10 µM was 8.85%.

With `Cc1cccc(Cl)c1S(=O)(=O)N1CCn2cccc2C1CC(=O)N(C)C(CN1CCOCC1)c1ccccc1` (stereo not drawn) [Example 259, 2-[2-[(2-Chloro-6-methyl-phenyl)sulfonyl]-1,2,3,4-tetrahydro-pyrrolo[1,2-a]pyrazin-1-yl]-N-methyl-N-(2-morpholin-4-yl-1-phenyl-ethyl)-acetamide], the inhibition at 10 µM is 4.54%.

For `COc1cc(C)c(S(=O)(=O)N2CCn3cccc3C2CC(=O)N2CCN(Cc3ccc4c(c3)OCO4)CC2)c(C)c1` (stereo not drawn) [Example 246, 1-[4-(1,3-Benzodioxol-5-yl-methyl)-piperazin-1-yl]-2-[2-[(4-methoxy-2,6-dimethyl-phenyl)sulfonyl]-1,2,3,4-tetrahydro-pyrrolo[1,2-a]pyrazin-1-yl]-ethanone], the inhibition at 10 µM stood at 6.85%.
